We go through 15 compounds from US11964971B2, “Methods and compositions for modulating splicing” (Skyhawk Therapeutics, Inc., priority 2019, dated 2024).

One data set relates to MDR1 (P-gp). Put plainly: MDCK-MDR1 permeability assay, blood-brain-barrier penetration potential. The conditions noted are these: dog, MDCK-MDR1, pH 7.4, MDCK-MDR1 Efflux Ratio.
A further data set relates to SMN protein. The data set is described as follows: SMN protein assay (MSD) in SMA patient fibroblasts (GM03813). The format is cell-based, human. In short, it runs like this:
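SMA patient fibroblasts GM03813 (7000 cells/well) treated 48 h with compounds from 2.5 μM to 0.6 nM. Lysate SMN protein quantified by MSD immunoassay against an SMN standard curve (1 to 19.5 μg/ml) on each plate, giving absolute amounts.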

The subject of data set [1] is MDR1-MDCK cell monolayers. The conditions noted are these: dog, MDCK-MDR1, 120 min, 5 μM, pH 7.4.
A further data set has as its system MDR1. The data set is described as follows: in vitro. The conditions noted are these: dog; for Papp A→B at 120 min, 5 μM: MDCK-MDR1, pH 7.4, MDCK-MDR1: Papp A-B (10^−6, cm/s); for Papp B→A at 120 min, 5 μM: MDCK-MDR1, pH 7.4, MDCK-MDR1: Papp B-A (10^−6, cm/s).
A further data set has as its system SMN FL and SMN Δ7. The data set is described as follows: Quantitative splicing assay (SMN) in SMA patient fibroblasts (GM03813). The format is cell-based. The conditions noted are these: Homo sapiens, Fibroblast; class symbol; read-out: SMN2 Splicing FL EC50 (nM)*. The protocol: Spinal muscular atrophy (SMA) patient fibroblasts (GM03813, Coriell) are plated in 96-well plates at 50,000 cells/well. […] Treated cells are lysed and cDNA synthesized using the Fast Advanced Cells-to-Ct kit (Thermofisher A35378) according to the manufacturer's instructions. 2 μL of each cDNA are used in qPCR reactions. […] Reactions are run in a Quant Studio 6 qPCR instrument with default settings.

The structures appear in SMILES notation.

Turning to `CN(c1cnc(-c2ccc(-c3cnn(C)c3)cc2O)cn1)[C@@H]1CC2CC[C@H](N2)[C@@H]1F` (single isomer, unassigned) [Compound 16E1], in the data set on MDR1 (P-gp), the efflux ratio at 120 min, 5 μM was 4. The compound further showed an EC50 with SMN protein of 16 to 50 nM. Also, in data set [1], the “MDCK-MDR1: % Recov A-B (%)” value came out at 45% and the “MDCK-MDR1: % Recov B-A (%)” value is 79%. In addition, in the data set on MDR1, the Papp A→B at 120 min, 5 μM was 56.2 nm/s and the Papp B→A at 120 min, 5 μM is 206 nm/s. The EC50 in the data set with SMN FL and SMN Δ7 lay in the range of 501 to 10000 nM.
Consider `CN(c1cnc(-c2ccc(-c3cnn(C)c3)cc2O)cn1)[C@H]1C[C@@H]2CCC(N2)[C@H]1F` (single isomer, unassigned) [Compound 16E2], for which the efflux ratio at 120 min, 5 μM with MDR1 (P-gp) was found to be 4. In addition, the EC50 in the data set on SMN protein lay within 16 to 50 nM. In addition, in data set [1], the “MDCK-MDR1: % Recov A-B (%)” value turned out to be 54% and the “MDCK-MDR1: % Recov B-A (%)” value is given as 86%. In the data set on MDR1, this compound registered a Papp A→B at 120 min, 5 μM of 76.8 nm/s and a Papp B→A at 120 min, 5 μM of 284 nm/s. Also, the EC50 in the data set on SMN FL and SMN Δ7 was in the range of 101 to 500 nM.
As to `COc1cc(-c2ccc(-c3cnc(N(C)[C@@H]4CC5CC[C@H](N5)[C@@H]4F)cn3)c(O)c2)cnn1` (single isomer, unassigned) [Compound 26E1], the efflux ratio at 120 min, 5 μM with MDR1 (P-gp) is 5. Moreover, the EC50 in the data set with SMN protein lay within 501 to 10000 nM. Further, in data set [1], the “MDCK-MDR1: % Recov A-B (%)” value was 45% and the “MDCK-MDR1: % Recov B-A (%)” value worked out at 74%. Also, in the data set on MDR1, the Papp A→B at 120 min, 5 μM came out at 50.6 nm/s and the Papp B→A at 120 min, 5 μM came to 244 nm/s. In the data set with SMN FL and SMN Δ7, the EC50 lay within 101 to 500 nM.
`COc1cc(-c2ccc(-c3cnc(N(C)[C@H]4C[C@@H]5CCC(N5)[C@H]4F)cn3)c(O)c2)cnn1` (single isomer, unassigned) [Compound 26E2]: the efflux ratio at 120 min, 5 μM in the data set with MDR1 (P-gp) turned out to be 8. The compound further came in with an EC50 in the data set on SMN protein of 16 to 50 nM. For the same compound, in data set [1], the “MDCK-MDR1: % Recov A-B (%)” value came to 41% and the “MDCK-MDR1: % Recov B-A (%)” value was 67%. In the data set with MDR1, the Papp A→B at 120 min, 5 μM was 31.6 nm/s and the Papp B→A at 120 min, 5 μM stood at 239 nm/s. Further, the EC50 with SMN FL and SMN Δ7 was in the range of 101 to 500 nM.
Regarding `CN(c1cnc(-c2ccc(-c3cn[nH]c3)cc2O)cn1)[C@H]1C[C@@H]2CCC(N2)[C@@H]1F` (single isomer, unassigned) [Compound 27E2], the efflux ratio at 120 min, 5 μM with MDR1 (P-gp) was 9. In the data set on SMN protein, the EC50 fell in the range of 16 to 50 nM. Moreover, in data set [1], the “MDCK-MDR1: % Recov A-B (%)” value was 80% and the “MDCK-MDR1: % Recov B-A (%)” value was determined as 85%. In the data set on MDR1, this compound yielded a Papp A→B at 120 min, 5 μM of 44.5 nm/s and a Papp B→A at 120 min, 5 μM of 406 nm/s. Moreover, in the data set on SMN FL and SMN Δ7, the EC50 lay in the range of 101 to 500 nM.
Regarding `CN(c1cnc(-c2ccc(-c3cn[nH]c3)cc2O)cn1)[C@H]1C[C@]2(C)CCC(N2)[C@H]1F` (single isomer, unassigned) [Compound 28E1], in the data set with MDR1 (P-gp), the efflux ratio at 120 min, 5 μM was 15. In the data set on SMN protein, the EC50 was 0.01 to 15 nM. Also, in data set [1], the “MDCK-MDR1: % Recov A-B (%)” value is reported as 66% and the “MDCK-MDR1: % Recov B-A (%)” value is given as 80%. Also, in the data set on MDR1, the Papp A→B at 120 min, 5 μM was 32.3 nm/s and the Papp B→A at 120 min, 5 μM came to 481 nm/s. Further, the EC50 with SMN FL and SMN Δ7 is 101 to 500 nM.
As for `CN(c1cnc(-c2cc(F)c(-c3cnn(CF)c3)cc2O)cn1)[C@H]1C[C@@H]2CCC(N2)[C@H]1F` (single isomer, unassigned) [Compound 29E2], in the data set on MDR1 (P-gp), the efflux ratio at 120 min, 5 μM was 3. In the data set on SMN protein, this compound registered an EC50 of 16 to 50 nM. Moreover, in data set [1], the “MDCK-MDR1: % Recov A-B (%)” value stood at 31% and the “MDCK-MDR1: % Recov B-A (%)” value was found to be 50%. In the data set on MDR1, this compound returned a Papp A→B at 120 min, 5 μM of 55.9 nm/s and a Papp B→A at 120 min, 5 μM of 183 nm/s. The EC50 with SMN FL and SMN Δ7 fell in the range of 51 to 100 nM.
Consider `COc1cc(-c2cc(O)c(-c3cnc(N(C)[C@H]4C[C@@H]5CCC(N5)[C@H]4F)cn3)cc2F)ncn1` (single isomer, unassigned) [Compound 34E2], for which the efflux ratio at 120 min, 5 μM in the data set with MDR1 (P-gp) came to 2. Besides, in the data set with SMN protein, the EC50 is 16 to 50 nM. For the same compound, in data set [1], the “MDCK-MDR1: % Recov A-B (%)” value worked out at 21% and the “MDCK-MDR1: % Recov B-A (%)” value amounted to 66%. In the data set on MDR1, this compound gave a Papp A→B at 120 min, 5 μM of 37.6 nm/s and a Papp B→A at 120 min, 5 μM of 72.3 nm/s. Besides, the EC50 in the data set with SMN FL and SMN Δ7 is 51 to 100 nM.
Turning to `CN(c1cnc(-c2cc(F)c(-c3cn[nH]c3)cc2O)cn1)[C@@H]1CC2CC[C@H](N2)[C@@H]1F` (single isomer, unassigned) [Compound 40E1], the efflux ratio at 120 min, 5 μM in the data set with MDR1 (P-gp) was found to be 6. The compound further came in with an EC50 with SMN protein of 16 to 50 nM. In data set [1], the “MDCK-MDR1: % Recov A-B (%)” value turned out to be 54% and the “MDCK-MDR1: % Recov B-A (%)” value stood at 75%. In the data set on MDR1, this compound came in with a Papp A→B at 120 min, 5 μM of 66.3 nm/s and a Papp B→A at 120 min, 5 μM of 392 nm/s. Further, the EC50 in the data set with SMN FL and SMN Δ7 was 51 to 100 nM.
For `CN(c1cnc(-c2cc(F)c(-c3cn[nH]c3)cc2O)cn1)[C@H]1C[C@@H]2CCC(N2)[C@H]1F` (single isomer, unassigned) [Compound 40E2], the efflux ratio at 120 min, 5 μM in the data set with MDR1 (P-gp) is 5. This compound yielded an EC50 with SMN protein of 0.01 to 15 nM. In addition, in data set [1], the “MDCK-MDR1: % Recov A-B (%)” value is 59% and the “MDCK-MDR1: % Recov B-A (%)” value is 72%. Also, in the data set on MDR1, the Papp A→B at 120 min, 5 μM came to 73.3 nm/s and the Papp B→A at 120 min, 5 μM amounted to 371 nm/s. Moreover, the EC50 with SMN FL and SMN Δ7 is 16 to 50 nM.
As for `CN(c1cnc(-c2ccc(-c3cnn(CF)c3)cc2O)cn1)[C@@H]1CC2CC[C@H](N2)[C@@H]1F` (single isomer, unassigned) [Compound 42E1], the efflux ratio at 120 min, 5 μM in the data set with MDR1 (P-gp) is 6. Besides, the EC50 in the data set with SMN protein was in the range of 16 to 50 nM. In data set [1], the “MDCK-MDR1: % Recov A-B (%)” value is 48% and the “MDCK-MDR1: % Recov B-A (%)” value was 59%. In the data set on MDR1, this compound registered a Papp A→B at 120 min, 5 μM of 53.8 nm/s and a Papp B→A at 120 min, 5 μM of 304 nm/s. Moreover, in the data set with SMN FL and SMN Δ7, the EC50 is 51 to 100 nM.
With `CN(c1cnc(-c2ccc(-c3ccn(C)c(=O)c3)cc2O)cn1)[C@@H]1CC2CC[C@H](N2)[C@@H]1F` (single isomer, unassigned) [Compound 45E1], the efflux ratio at 120 min, 5 μM with MDR1 (P-gp) is 37. The EC50 in the data set on SMN protein was 101 to 500 nM. Moreover, in data set [1], the “MDCK-MDR1: % Recov A-B (%)” value stood at 88% and the “MDCK-MDR1: % Recov B-A (%)” value came to 85%. In the data set with MDR1, this compound had a Papp A→B at 120 min, 5 μM of 13 nm/s and a Papp B→A at 120 min, 5 μM of 476 nm/s. The half-maximal effective concentration (EC50) in the data set on SMN FL and SMN Δ7 lay within 51 to 100 nM.
`COc1cc(-c2ccc(-c3cnc(N(C)[C@@H]4CC5CC[C@H](N5)[C@@H]4F)cn3)c(O)c2)ncn1` (single isomer, unassigned) [Compound 48E1]: the efflux ratio at 120 min, 5 μM with MDR1 (P-gp) was 2. In the data set on SMN protein, this compound had an EC50 of 16 to 50 nM. In data set [1], the “MDCK-MDR1: % Recov A-B (%)” value worked out at 21% and the “MDCK-MDR1: % Recov B-A (%)” value came out at 44%. In the data set with MDR1, this compound yielded a Papp A→B at 120 min, 5 μM of 41.5 nm/s and an apparent permeability from basolateral to apical (Papp B→A) at 120 min, 5 μM of 69 nm/s. The EC50 in the data set on SMN FL and SMN Δ7 was in the range of 101 to 500 nM.
Regarding `CNC(=O)/C=C/c1cc(O)c(-c2cnc(N(C)[C@H]3C[C@@H]4CCC(N4)[C@H]3F)cn2)cc1F` (single isomer, unassigned) [Compound 60E2], the efflux ratio at 120 min, 5 μM with MDR1 (P-gp) amounted to 24. The EC50 with SMN protein fell in the range of 0.01 to 15 nM. Moreover, in data set [1], the “MDCK-MDR1: % Recov A-B (%)” value is listed as 89% and the “MDCK-MDR1: % Recov B-A (%)” value came out at 89%. In the data set with MDR1, the Papp A→B at 120 min, 5 μM turned out to be 24.8 nm/s and the Papp B→A at 120 min, 5 μM is 601 nm/s. For the same compound, the EC50 in the data set with SMN FL and SMN Δ7 fell in the range of 51 to 100 nM.
`COc1cc(-c2ccc(-c3cnc(N(C)[C@@H]4CC5CC(F)(F)[C@@H](C4)N5)cn3)c(O)c2)cnn1` (single isomer, unassigned) [Compound 68E2]: the efflux ratio at 120 min, 5 μM in the data set on MDR1 (P-gp) was 5. The compound further yielded an EC50 with SMN protein of 501 to 10000 nM. For the same compound, in data set [1], the “MDCK-MDR1: % Recov A-B (%)” value is 66% and the “MDCK-MDR1: % Recov B-A (%)” value is on record as 89%. In the data set with MDR1, this compound came in with a Papp A→B at 120 min, 5 μM of 98.1 nm/s and a Papp B→A at 120 min, 5 μM of 472 nm/s. For the same compound, in the data set on SMN FL and SMN Δ7, the EC50 fell in the range of 501 to 10000 nM.

By efflux ratio is commonly meant a quotient of directional permeabilities that is used to spot active efflux. For orientation: EC50 means the midpoint of the concentration-response curve. What is called Papp A→B is how fast a substance crosses the layer from the apical side. What is called Papp B→A is how fast a substance crosses the layer from the basolateral side.
